Source: patent US9283226B2, “Pyrazole derivatives as protein kinase modulators” (Astex Therapeutics Ltd, priority 2003, dated 2016)

Target: T1, PKB-PIF fusion protein (Homo sapiens, UniProt P31751)
T1 construct: made in house
Assay: Measurement of PKB kinase inhibitory activity (IC50), radiometric filter plate assay
Assay type: biochemical
Conditions: 0.6 nM enzyme, 30 μM ATP, 25 μM AKTide-2T substrate, 20 minutes
Experimental: The reaction is allowed to proceed for 20 minutes before addition of excess orthophosphoric acid to quench activity. The reaction mixture is transferred to a phosphocellulose filter plate where the peptide binds and the unused ATP is washed away. After washing, scintillant is added and the incorporated activity measured by scintillation counting.

T1 sequence (P31751 with tags, fused parts or gaps limits assumed): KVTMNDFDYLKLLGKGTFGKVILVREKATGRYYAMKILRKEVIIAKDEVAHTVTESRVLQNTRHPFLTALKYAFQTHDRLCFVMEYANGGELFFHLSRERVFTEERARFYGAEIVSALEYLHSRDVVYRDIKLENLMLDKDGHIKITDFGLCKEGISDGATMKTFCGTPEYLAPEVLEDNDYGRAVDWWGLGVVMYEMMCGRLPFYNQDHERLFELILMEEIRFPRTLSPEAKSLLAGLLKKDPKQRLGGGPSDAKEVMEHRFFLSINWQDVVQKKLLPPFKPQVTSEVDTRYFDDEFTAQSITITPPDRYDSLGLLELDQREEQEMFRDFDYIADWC

| SMILES | IC50 [µM] |
| --- | --- |
| CNC[C@@H](c1ccc(Cl)cc1)c1ccc(-c2cn[nH]c2)cc1 [Example 22, {2-(4-Chloro-phenyl)-2-[4-(1H-pyrazol-4-yl)-phenyl]-ethyl}-methyl-amine (R)] | < 1 |
| CNCC(c1ccccc1)c1ccc(-c2c[nH]nc2C)nc1 (centres unmarked) [Example 60] | < 5 |
